Some test systems named below: SK-MEL-2 melanoma; SNB-75 CNS; NCI-H522 lung; IGROV1 ovarian; LOX IMVI melanoma; HOP-62 NSCLC; MDA-MB-435; SNB-19 CNS; MDA-MB-231 breast; SR leukemia.
Common to all, as to experiment: growth of human tumour cells (NCI), 48 h

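Interpolation was linear, between the two tested concentrations surrounding the appropriate level; five concentrations were tested over 48 hours in 96-well plates. Here, GI50 denotes the concentration required for 50% inhibition of growth. The concentration for full growth arrest is given as TGI.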 Where only a bound is given, the exact number is not on record here.

On to `c1ccc(/C(=N\Nc2nc3ccccc3s2)c2ccccn2)cc1`, for which the TGI was over 61.8 µM in the assay on SK-MEL-2 melanoma; over 100 µM in the assay on SNB-75 CNS; 36.7 µM with NCI-H522 lung; over 48.2 µM in the assay on IGROV1 ovarian; 42.4 µM with LOX IMVI melanoma; 97.8 µM with HOP-62 NSCLC. In addition, the TGI in the assay with MDA-MB-435, in the assay on SNB-19 CNS and in the assay with MDA-MB-231 breast was over 100 µM each time.
In the case of `O=C(OCc1ccccc1)n1cccc1`, the TGI with SR leukemia, with SK-MEL-2 melanoma, with SNB-75 CNS, in the assay on NCI-H522 lung, in the assay with IGROV1 ovarian and with LOX IMVI melanoma was over 100 µM each time. Moreover, the TGI with HOP-62 NSCLC and in the assay with SNB-19 CNS was over 100 µM in each case.
Consider `CC1(C)CC[C@]2(CO)CC[C@]3(C)C(=CC[C@@H]4[C@@]5(C)CCNCC(C)(C)[C@@H]5CC[C@]43C)[C@@H]2C1`, for which the GI50 in the assay with SK-MEL-2 melanoma is 2.32 µM; with SNB-75 CNS, 10.1 µM; in the assay on NCI-H522 lung it was 2.62 µM; in the assay on IGROV1 ovarian it was 6.83 µM; with LOX IMVI melanoma, 2.45 µM; with HOP-62 NSCLC it was 3.65 µM. Also, the values for the GI50 with MDA-MB-435, with SNB-19 CNS and in the assay on MDA-MB-231 breast were 3.01 µM, 12.8 µM and 3.49 µM, respectively. Moreover, the TGI with SK-MEL-2 melanoma came out at 5.57 µM; in the assay on SNB-75 CNS, 23 µM; in the assay on NCI-H522 lung, 7.09 µM; in the assay with IGROV1 ovarian it was 21 µM; in the assay on LOX IMVI melanoma, 5.52 µM; in the assay with HOP-62 NSCLC, 15.3 µM. The TGI was found to be 8.9 µM in the assay on MDA-MB-435, 26.8 µM in the assay on SNB-19 CNS and 11.6 µM in the assay with MDA-MB-231 breast.
As for `COc1cc(NCCC2CCCCN2)c2ncccc2c1OC` (stereo unspecified), the GI50 was 3.13 µM with SK-MEL-2 melanoma; 3.85 µM in the assay on SNB-75 CNS; 2.41 µM with NCI-H522 lung; 1.95 µM in the assay with LOX IMVI melanoma; 17.3 µM in the assay on HOP-62 NSCLC; 18.7 µM in the assay with SNB-19 CNS. For the same molecule, the GI50 in the assay on MDA-MB-231 breast is 3.02 µM. In addition, the TGI turned out to be 9.07 µM with SK-MEL-2 melanoma; 19.5 µM in the assay with SNB-75 CNS; 9.05 µM with NCI-H522 lung; 5.49 µM with LOX IMVI melanoma; 32.4 µM with HOP-62 NSCLC; 42.3 µM with SNB-19 CNS. The molecule further displayed a TGI with MDA-MB-231 breast of 12.5 µM.
Take `CCOC(=O)c1cc2c(n1Cc1cc(OC)cc(OC)c1)-c1oncc1CC2`: the GI50 in the assay with SR leukemia is 0.0475 µM; with SK-MEL-2 melanoma it was over 100 µM; in the assay with SNB-75 CNS it was 0.111 µM; in the assay on NCI-H522 lung it was 0.0404 µM; with IGROV1 ovarian, 0.226 µM; with LOX IMVI melanoma, 0.593 µM. The figures for the GI50 in the assay with HOP-62 NSCLC, in the assay with SNB-19 CNS and with MDA-MB-231 breast were 0.327 µM, 0.544 µM and 1.09 µM, respectively. For the same molecule, the TGI in the assay with SR leukemia was over 36.8 µM; in the assay on SK-MEL-2 melanoma it was over 100 µM; in the assay with SNB-75 CNS, over 100 µM; in the assay with NCI-H522 lung it was over 91.5 µM; with IGROV1 ovarian it was over 100 µM; with LOX IMVI melanoma, over 100 µM. The TGI was over 100 µM with HOP-62 NSCLC, over 100 µM with SNB-19 CNS and over 95.8 µM with MDA-MB-231 breast.
On to `O=C1CCc2ccc(O)c(c2)Oc2ccc(cc2)[C@@H]2O[C@@H]2CO1`, for which the TGI in the assay on SR leukemia was over 100 µM; in the assay on SK-MEL-2 melanoma, over 100 µM; with SNB-75 CNS, over 100 µM; in the assay on IGROV1 ovarian it was 50.5 µM; in the assay on LOX IMVI melanoma it was over 100 µM; in the assay with HOP-62 NSCLC, over 100 µM. In addition, in the assay on SNB-19 CNS, the TGI was over 100 µM.
With `CC[P+]1(c2ccccc2)CCCCC1`, the TGI in the assay on SR leukemia, in the assay on SK-MEL-2 melanoma, in the assay with SNB-75 CNS, in the assay with IGROV1 ovarian, with LOX IMVI melanoma and in the assay on HOP-62 NSCLC was over 100 µM throughout. In the assay with SNB-19 CNS, this molecule came in with a TGI of over 100 µM.
Regarding `CN(C)CCNC(=O)c1cccc2c1nc(-c1ccncc1)c1ccccc12`, the TGI with SK-MEL-2 melanoma was 19.1 µM; in the assay with SNB-75 CNS, 15.8 µM; in the assay on IGROV1 ovarian it was 20.1 µM; in the assay with LOX IMVI melanoma, 3.66 µM; in the assay on HOP-62 NSCLC it was 19.5 µM; with SNB-19 CNS, 27.2 µM.
As for `CNC(=O)NCCN1N=C(C)/C(=C\c2ccccc2)CC1=O`, the TGI in the assay on SR leukemia, in the assay with SK-MEL-2 melanoma, in the assay with SNB-75 CNS, in the assay on NCI-H522 lung, in the assay with IGROV1 ovarian and in the assay on LOX IMVI melanoma was over 100 µM throughout. The TGI in the assay on HOP-62 NSCLC and in the assay with SNB-19 CNS was over 100 µM throughout.
In the case of `CCOC(=O)c1cc(C(=O)c2cc(OC)c(OC)c(OC)c2)n2ccc(-c3cc[n+](CC(=O)c4cc(OC)c(OC)c(OC)c4)cc3)cc12`, the GI50 in the assay on SK-MEL-2 melanoma was 2.6 µM; in the assay with SNB-75 CNS it was 1.46 µM; in the assay with NCI-H522 lung, 2.13 µM; with IGROV1 ovarian, 2.12 µM; in the assay with MDA-MB-435 it was 1.9 µM; with MDA-MB-231 breast it was 1.66 µM. For the same molecule, the TGI worked out at 7.12 µM in the assay on SK-MEL-2 melanoma; 3.36 µM in the assay with SNB-75 CNS; 5.04 µM with NCI-H522 lung; 5.92 µM in the assay on IGROV1 ovarian; 3.85 µM with MDA-MB-435; 3.29 µM in the assay with MDA-MB-231 breast.
Turning to `N#CCC(=O)Nc1ccccc1O`, the TGI in the assay with SR leukemia, in the assay on SK-MEL-2 melanoma, in the assay on SNB-75 CNS, in the assay on NCI-H522 lung, in the assay on IGROV1 ovarian and in the assay with HOP-62 NSCLC was over 100 µM each time. Moreover, in the assay on SNB-19 CNS, the TGI is over 100 µM.
As to `C=CCC1C(=O)CC2(C)C(CC=C)C(=O)CC12C` (stereo unspecified), the TGI in the assay on SR leukemia, in the assay on SK-MEL-2 melanoma, in the assay with SNB-75 CNS, in the assay on NCI-H522 lung, in the assay on IGROV1 ovarian and with LOX IMVI melanoma was over 100 µM in each case. For the same molecule, the TGI in the assay on HOP-62 NSCLC and in the assay on SNB-19 CNS was over 100 µM in each case.
For `O=C1c2ccccc2C(=O)c2sc(Nc3ccc([N+](=O)[O-])cc3)nc21`, the TGI with SR leukemia turned out to be 7.97 µM; with SK-MEL-2 melanoma, 34.1 µM; with SNB-75 CNS, 21.1 µM; in the assay with NCI-H522 lung it was 6.35 µM; in the assay on IGROV1 ovarian, 26.2 µM; in the assay with LOX IMVI melanoma, 4.66 µM. For the same molecule, the TGI with HOP-62 NSCLC turned out to be 27.1 µM; in the assay on SNB-19 CNS it was 25.7 µM; in the assay on MDA-MB-231 breast, 6.39 µM.

Source of the values: PubChem BioAssay (NCI).
